# Experimental data published in US7884120B2, “2,4,5-trisubstituted imidazoles and their use as anti-microbial agents” (Lorus Therapeutics Inc., priority 2002, dated 2011).
# Like-named read-outs stand apart in the source and are kept apart here.
# Key:
# [1] = tested on: multi-drug resistant Staphylococcus aureus (CMRSA-1B); experiment: Bactericidal effect against MRSA (CFU plating on TSA); assay type: cell-based; conditions: overnight with compound, plated on TSA, CFU count (FIG. 1)
# Experimental: Serial dilutions of liquid cultures were incubated with the compounds at 37° C. overnight and then plated on Tryptic Soy Agar (TSA) plates. After incubation for 17 hours at 37° C., the number of live bacteria was calculated from the number of colonies grown per milliliter of culture and expressed as colony-forming units (CFU).
# [2] = tested on: Methicillin-Resistant Staphylococcus aureus (MRSA), CMRSA-1B; experiment: MIC by sequential macrodilution (tube) broth method against MRSA; assay type: cell-based; design: key: (+): Positive visual bacterial growth; (−): Negative visual bacterial growth; conditions: 37° C. overnight
# Experimental: (Nat. Committee for Clinical Laboratory Standards. Document M7-A5 2000, 20; 1-25). Bacterial suspensions containing 5×10^5 colony-forming units (CFU) were incubated with serial two-fold dilutions of each drug at 37° C. overnight, and growth was monitored visually. The range of MIC values among the triaryl-imidazole derivatives was 12.5-50 μg/ml.
# MRSA-1B387 = experiment: In vivo inhibition of MRSA, acute infection in immunosuppressed CB17-SCID mice; design: species or system Staphylococcus aureus; conditions: 5×10^6 MRSA-1B387 in 5% mucin, 50 mg/kg I.P. immediately and 3 hours after inoculation
# Experimental: Triaryl-imidazole compounds were tested in vivo for antibacterial activity against MRSA in a model of acute infection using immunosuppressed mice. Suspensions of 400 μL containing 5×10^6 MRSA-1B387 bacteria in 5% mucin were injected into groups of 5-10 female, 8-14 weeks CB17-SCID mice. Under these conditions bacterial infection produced 80-100% lethality in less than 48 hours. Each group of inoculated mice was treated with 50 mg/kg of the respective compound intraperitoneally (I.P.) immediately and 3 hours after bacterial inoculation.
# [3] = tested on: Candida albicans (ATCC 24433); experiment: In vitro anti-fungal activity, microdilution against Candida albicans; assay type: cell-based; conditions: for MIC: ATCC24433, C. albicans ATCC 24433
# Experimental: A microdilution method was used to determine the anti-fungal activity of different test compounds against Candida albicans (ATCC 24433) at 25 μg/ml. RPMI-1640 broth is recommended as the medium of choice for susceptibility testing of C. albicans (NCCLS, 2002; Document M27-A2) and was used in this study. The broth was buffered to pH 7.0 and then sterilized using a 250 ml vacuum driven disposable 0.45 um filtration system.
# C. albicans was sub-cultured from a −80° C. stock onto Sabouraud dextrose agar and incubated for 24-48 hrs at 37° C. The fungi inoculum was prepared by picking five colonies of ˜1 mm in diameter from 24-48 hr old cultures. The colonies were then suspended in 5 ml of sterile normal saline (8.5 g/L NaCl; 0.85% saline) diluted 1:50 and further diluted 1:20 with medium to obtain two-fold inoculum (1-5×10^3 cfu/ml). […] The microtitre plates were then sealed in plastic bags and incubated at 35° C. for 24-48 hrs in an ambient air incubator with shaking at 250 RPM.
# Inhibition of visible growth of C. albicans in the microtitre plate wells was assessed by the unaided eye and confirmed by OD600 reading. […] The MIC values of compounds with significant activity are also included.
# [4] = tested on: S. aureus, MRSA 1A-218, 1A-318, 1B-374, 1B-315, 1B-185, 1B387 and MSSA ATCC-6538, ATCC-29213; experiment: MIC by standard microdilution method against S. aureus (MRSA and MSSA strains); assay type: cell-based; conditions: Staphylococcus aureus
# Experimental: A standard microdilution method (NCCLS, 2000; Document M7-A5) was used to determine the minimum inhibitory concentrations (MICs) against S. aureus, methicillin-resistant strains (MRSA); 1A-218, 1A-318, 1B-374, 1B-315, 1B-185, 1B387 (Simor et al. 1999 Can Commun Dis Rep; 25:105-108) and methicillin-sensitive strains (MSSA); ATCC-6538 and ATCC-29213. The MICs of some compounds were also determined against other Gram-positive bacteria: Enterococcus faecium (ATCC 51559), Enterococcus faecalis (ATCC-51299, ATCC-29212) and Staphylococcus epidermidis (ATCC-35983).
# Mueller-Hinton broth (MHB) is recommended as the medium of choice for susceptibility testing of commonly isolated, rapidly growing aerobic organisms such as the Gram-positive bacteria included in this study. A “cation-adjusted Mueller-Hinton broth” (Ca-MHB) was prepared by first preparing standard MHB from a dehydrated base as recommended by the manufacturer.
# Single colonies from fresh agar plates of the different bacterial cultures were sub-cultured overnight in 3 ml of Tryptic soy broth (TSB) at 37° C. with shaking at 250 RPM. After 18-20 hours of incubation, the absorbance at λ=600 nm (OD600) were determined for each culture and adjusted to a final OD600=0.1 (4.2×10^7 cfu/ml). Bacterial suspensions were then diluted 1:200 in sterile Ca-MHB for the in vitro susceptibility test, with each well of the microtitre plate containing approximately 2×10^5 cfu/ml.
# Stock solutions of the different test compounds were prepared at concentrations of 1,280 μg/ml, 640 μg/ml, or 320 μg/ml in 50% DMSO (dimethyl sulfoxide). Serial two-fold dilutions were then prepared in 50% DMSO (the working concentrations were 1:10 of the stock concentrations in 100 μl culture suspensions). The filled microtitre plates were sealed in plastic bags and incubated at 35° C. for 24 hr in an ambient air incubator with shaking at 250 RPM. MIC values were determined as the lowest concentration where complete inhibition of the visible bacterial growth was observed by the unaided eye and confirmed by the measurement of the optical density (OD600).
# MRSA 1B-387 = experiment: In vivo anti-bacterial activity, ICR mice inoculated I.P. with MRSA, oral treatment; conditions: Staphylococcus aureus
# Experimental: For in vivo studies, groups of 5-10 female ICR mice (6-7 weeks) were inoculated intraperitonially with 3-8×10^7 CFU MRSA 1B-387 per mouse in 400 μl of 5% mucin. The test compounds at concentrations of 50 or 100 mg/kg were administered orally immediately after the bacterial inoculation and again 3 hours later. The selected dosages were administered twice daily throughout the experiment. The efficacy of the treatment was evaluated by comparison of mortality between the experimental and control groups (Table 5).
# [5] = ATCC24433, C. albicans ATCC 24433, compound 25 μg/ml, 24 h, read-out: Inhibition (%) after 24 h
# [6] = ATCC24433, C. albicans ATCC 24433, compound 25 μg/ml, 48 h, read-out: Inhibition (%) after 48 h
# [7] = against all 8 strains of S. aureus tested except where indicated, microdilution, Ca-MHB, 35° C., 24 hr, read-out: MIC
# [8] = ATCC24433, 24 h, read-out: Inhibition (%) after 24 h
# [9] = ATCC24433, 48 h, read-out: Inhibition (%) after 48 h
Structure (SMILES),"inhibition at 25 µg/mL [3, 5]","inhibition at 25 µg/mL [3, 6]","MIC [4, 7]",responders at 100 mg/kg (MRSA 1B-387),responders at 100 mg/kg (MRSA 1B-387; read-out: Survival %),also measured
O=C(O)c1ccc(-c2nc(-c3ccc(Sc4ccccc4)cc3)c(-c3ccccc3)[nH]2)cc1 [Compound 1],,,,,,bactericidal or bacteriostatic effect at the corresponding MIC [1]: bactericidal effect; visual bacterial growth ([2]; Conc. 3.12 μg/ml): +; visual bacterial growth ([2]; Conc. 6.25 μg/ml): +; visual bacterial growth ([2]; Conc. 12.50 μg/ml): −; visual bacterial growth ([2]; Conc. 25.00 μg/ml): −; visual bacterial growth ([2]; Conc. 50.00 μg/ml): −; visual bacterial growth ([2]; Conc. 100.00 μg/ml): −; Survival (%) (MRSA-1B387): 40%
O=C(O)c1ccc(-c2nc(-c3ccc(Br)cc3)c(-c3ccccc3Br)[nH]2)cc1 [Compound 3],,,,,,bactericidal or bacteriostatic effect at the corresponding MIC [1]: bacteriostatic effect; visual bacterial growth ([2]; Conc. 3.12 μg/ml): +; visual bacterial growth ([2]; Conc. 6.25 μg/ml): +; visual bacterial growth ([2]; Conc. 12.50 μg/ml): +; visual bacterial growth ([2]; Conc. 25.00 μg/ml): −; visual bacterial growth ([2]; Conc. 50.00 μg/ml): −; visual bacterial growth ([2]; Conc. 100.00 μg/ml): −; Survival (%) (MRSA-1B387; 50 mg/kg): 15%
O=C(O)c1ccc(-c2nc(-c3ccc(Br)cc3)c(-c3ccccc3Br)[nH]2)cc1 [Compound 4],,,,,,bactericidal or bacteriostatic effect at the corresponding MIC [1]: bacteriostatic effect; visual bacterial growth ([2]; Conc. 3.12 μg/ml): +; visual bacterial growth ([2]; Conc. 6.25 μg/ml): +; visual bacterial growth ([2]; Conc. 12.50 μg/ml): +; visual bacterial growth ([2]; Conc. 25.00 μg/ml): +; visual bacterial growth ([2]; Conc. 50.00 μg/ml): −; visual bacterial growth ([2]; Conc. 100.00 μg/ml): −; Survival (%) (MRSA-1B387; 50 mg/kg): 50%
CC(=O)n1c(-c2c(C)n(C(C)=O)c3ccccc23)nc(-c2ccccc2)c1-c1ccccc1 [Compound 5],0%,0%,> 128 µg/mL,20%,20%,
Brc1ccc2[nH]cc(-c3nc(-c4ccccc4)c(-c4ccccc4)[nH]3)c2c1 [Compound 6],0%,0%,4 µg/mL,40%,40%,
Fc1ccc(-c2nc(-c3c[nH]c4ccc(Br)cc34)[nH]c2-c2ccc(F)cc2)cc1 [Compound 8],100%,100%,2 µg/mL,20%,20%,MIC [3]: 8 µg/mL
COc1ccc(-c2nc(-c3c[nH]c4ccc(Br)cc34)[nH]c2-c2ccc(OC)cc2)cc1 [Compound 10],0%,0%,4 µg/mL,100%,100%,
Cc1[nH]c2ccccc2c1-c1nc(-c2ccc(N(C)C)cc2)c(-c2ccc(N(C)C)cc2)[nH]1 [Compound 11],27%,28%,8 µg/mL,0%,0%,
Clc1ccc(-c2[nH]c(-c3c[nH]c4ccc(Br)cc34)nc2-c2ccccc2)cc1 [Compound 32],93%,100%,8 µg/mL,40%,40%,MIC [3]: 8 µg/mL
Cc1[nH]c2ccccc2c1-c1nc(-c2ccccc2)c(-c2ccc([N+](=O)[O-])cc2)[nH]1 [Compound 33],0%,0%,4 to 8 µg/mL,0%,0%,
O=[N+]([O-])c1ccc(-c2[nH]c(-c3c[nH]c4ccc(Br)cc34)nc2-c2ccccc2)cc1 [Compound 34],0%,0%,> 128 µg/mL,100%,100%,
Cc1[nH]c2ccccc2c1-c1nc(-c2ccccc2)c(-c2ccc(F)cc2)[nH]1 [Compound 35],100%,73%,8 µg/mL,4%,40%,
Fc1ccc(-c2[nH]c(-c3c[nH]c4ccc(Br)cc34)nc2-c2ccccc2)cc1 [Compound 36],86%,97%,2 µg/mL,80%,80%,MIC [3]: 16 µg/mL
Cc1[nH]c2ccccc2c1-c1nc(-c2ccccc2)c(-c2ccc(Br)cc2)[nH]1 [Compound 42],77%,43%,4 µg/mL,0%,0%,
Brc1ccc(-c2[nH]c(-c3c[nH]c4ccc(Br)cc34)nc2-c2ccccc2)cc1 [Compound 43],87%,59%,4 µg/mL,80%,80%,MIC [3]: 8 µg/mL
Cc1[nH]c2ccccc2c1-c1nc2c3ccccc3c3ccccc3c2[nH]1 [Compound 44],,,,60%,60%,"inhibition at 25 µg/mL [3, 8]: 0%; inhibition at 25 µg/mL [3, 9]: 0%; MIC ([4]; 24 h): 8 µg/mL"
c1ccc2c(-c3nc4c5ccccc5c5ccccc5c4[nH]3)c[nH]c2c1 [Compound 46],,,,40%,40%,"inhibition at 25 µg/mL [3, 8]: 33%; inhibition at 25 µg/mL [3, 9]: 0%; MIC ([4]; 24 h): 4 µg/mL"
COC(=O)c1ccc2c(-c3nc(-c4ccccc4)c(-c4ccccc4)[nH]3)c[nH]c2c1 [Compound 83],0%,0%,> 128 µg/mL,20%,20%,
